According to paper PMC10064817 (Pharmaceutical Biology, 2023):
Where two headings read alike, the source gives them in different places.

Columns and labels:
[1] = format: physicochemical; details: 12 h
Experimental: The LCMS system was operated using a LCMS-8060 (Shimadzu, Kyoto, Japan) equipped with a C18 reversed phase column, Synergi 4 µm Fusion-RP 80 Å 50 × 2 mm (Phenomenex, Torrance, CA). The column oven was maintained at 40 °C and operated using a mobile phase consisting of 0.2% formic acid in water (solvent A) and 100% methanol (solvent B), with a gradient system (0–0.5 min 10% B, 0.5–1.5 min increase to 90% B, 1.5–2.5 min 90% B, 2.5–3.5 min decrease to 10% B, 3.5–4.5 min 10% B), at a flow rate of 0.5 mL/min, with a 10 μL injection volume. The mass spectrometer was a triple quadrupole with negative mode electrospray ionization (ESI). […] All the operations, acquisition and analysis of data were controlled by LabSolution software version 5.86 (Shimadzu, Japan). The LCMS method was validated for accuracy, precision, recovery and stability according to the guidance on bioanalytical method validation recommended by the FDA (USFDA [2018]).

[2] = dog, in vivo, iv, 1 mg/kg
[3] = system: SARS-CoV-2-infected Vero E6 cells; set-up: method as in Kanjanasirirat et al. [2020]; details: ref Kanjanasirirat et al. [2020]; cited from earlier work
in vivo = details: male, beagle, dog
[4] = predicted; ref PubChem [2004]; cited from earlier work
[5] = rat, in vivo, po; cited from earlier work
COVID-19 = system: COVID-19; set-up: method as in Jayk Bernal et al. [2021]; details: ref Jayk Bernal et al. [2021]; cited from earlier work
SARS-CoV-2 infection = system: SARS-CoV-2 infection; set-up: method as in Ansems et al. [2021]; details: hospitalized patients with SARS-CoV-2 infection; ref Ansems et al. [2021]; cited from earlier work
[6] = system: SARS-CoV-2-infected Calu-3 cells; set-up: method as in Sa-ngiamsuntorn et al. [2021]; details: ref Sa-ngiamsuntorn et al. [2021]; cited from earlier work

## COc1cc(O)c(C(=O)[C@@H]2[C@H](CC=C(C)C)C(C)=CC[C@H]2c2ccccc2)c(O)c1 [Panduratin A, panduratin A]
[1]; 10 µg/L
  Stability, Accuracy (%RE): 9.75 %RE
  Stability, mean concentration found: 10.98 µg/L
[1]; 150 µg/L
  Stability, Accuracy (%RE): 4.48 %RE
  Stability, mean concentration found: 156.72 µg/L
[1]; 600 µg/L
  Stability, Accuracy (%RE): 4.76 %RE
  Stability, mean concentration found: 628.57 µg/L
[2]
  ALT: 44 ± 7 U/L
  AST: 24 ± 6 U/L
  Alkaline phosphatase: 35 ± 4 U/L
  Blood urea nitrogen: 11.9 ± 1.6 mg/dL
  Creatinine: 0.6 ± 0.1 mg/dL
  Haemoglobin: 14.2 ± 1.3 g/dL
  Physical appearance: Normal
  Platelet: 241 ± 44 x 10^3/µL
  Red blood cell: 6.03 ± 0.66 x 10^6/µL
  White blood cell: 7.83 ± 1.09 x 10^3/µL
[3]
  IC50: 810 nM
In vivo
  half-life: 10 to 15 h
In vivo; iv, 1 mg/kg
  AUC(0-inf): 209 µg·h/mL
  AUC(0-t): 181 µg·h/mL
  MRT: 23.9 ± 3.27 h
  Vd: 0.1 ± 0.01 L/kg
  clearance: 0.167 mL/min/kg
  concentration at 72 h: 0.1 to 0.2 µg/mL
  half-life: 15.2 h
In vivo; iv, 1 mg/kg, Cmax
  Cmax: ~100 µg/mL
[4]
  Hydrogen bond acceptors: four
  Hydrogen bond donors: two
[5]
  Tissue distribution: distribution of panduratin A to various tissues, including skin, lung, heart, gum, liver, spleen, kidney and brain

## CC(C)C(=O)OC[C@H]1O[C@@H](n2ccc(NO)nc2=O)[C@H](O)[C@@H]1O [molnupiravir]
COVID-19
  Reduced rate of hospitalization or death compared to placebo: 30%

## CCC(CC)COC(=O)[C@H](C)N[P@](=O)(OC[C@H]1O[C@@](C#N)(c2ccc3c(N)ncnn23)[C@H](O)[C@@H]1O)Oc1ccccc1 [remdesivir, reference compound]
[3]
  IC50: 2710 nM
SARS-CoV-2 infection
  Effect on all-cause mortality at up to day 28: little or no effect

## C=C1CC[C@@H]2[C@](C)(CO)[C@H](O)CC[C@@]2(C)[C@@H]1C/C=C1/C(=O)OC[C@H]1O [andrographolide]
[6]
  IC50: 34 nM
